Several values for one entry are separate records, joined by “and”; a condition that tells them apart may be missing. Identical values can stand only once. Like-named read-outs stand apart in the source and are kept apart here. Bridge positions count the residues as written; N and C are the ends. Ends that are not written are not given here. Peptide text beside a SMILES is read from it. * marks the point of attachment. 5TAMRA = CN(C)c1ccc2c(c1)Oc1cc(N(C)C)ccc1C21OC(=O)c2cc(C(=O)*)ccc21
Experiments:
[1] = molecular target: T1, CGRP receptor (Nluc-CLR:RAMP1) (Homo sapiens, UniProt O60894+Q16602); experiment: nanoBRET association kinetics of TAMRA probes; assay type: binding
T1 construct: N-terminally Nanoluciferase (NLuc)-tagged CLR (pcDNA3.1(+)sec/NanoLuc-GSGIS-CLR.23-461); Wild-type CLR and RAMP expression plasmids were obtained from cDNA.org; sec (vector secretion signal before NanoLuc) (N); expressed in transfected cells; host or cells: COS-7 cells, membrane preparation
Description: After 2 days, the cells were washed with PBS and harvested with ice-cold PBS + 5 mM EDTA. The cells were pelleted in a centrifuge at 1000g for 5 min at 4 °C and resuspended in a hypotonic buffer (25 mM NaHEPES pH 7.5, 2 mM MgCl2, 1 mM EDTA, and 1× EDTA-free PIERCE protease inhibitor tablet). After resuspension, cells were homogenized with an Ultra Turrax for 30 s at 10,000 rpm followed by a 10 min incubation. Cell debris was pelleted at 800g for 10 min and the supernatant was transferred to ultracentrifuge tubes and centrifuged at 100,000g for 1 h. Membranes were resuspended in a wash buffer (25 mM NaHEPES pH 7.5, 250 mM NaCl, 2 mM MgCl2, 1 mM EDTA, and 1× protease inhibitor tablet). The homogenization and ultracentrifugation were repeated once more and the membranes were resuspended in storage buffer (25 mM NaHEPES pH 7.5, 25 mM NaCl, 2 mM MgCl2, 10% v/v glycerol, and 1× protease inhibitor tablet). The resuspended membranes were homogenized, aliquoted, and flash frozen in liquid nitrogen for storage at -80 °C. Total protein was quantitated using the DC protein assay (BioRad) per the manufacturer's instructions. The concentration of NLuc-CLR was determined by comparing the membrane prep luminescence to a standard curve using purified NLuc enzyme (Promega; […]). […] Costar 3912). […] The observed association rates (kobs) were plotted against probe concentration and the data was analyzed by linear regression. The kon and koff were obtained as the slope and y-intercept, respectively.

[2] = molecular target: T1, CGRP receptor (Nluc-CLR:RAMP1); experiment: nanoBRET equilibrium competition binding, Nluc-CLR:RAMP1 membranes; settings: room temperature, Cheng-Prusoff, mean ± SEM, n=3
Description: After 2 days, the cells were washed with PBS and harvested with ice-cold PBS + 5 mM EDTA. The cells were pelleted in a centrifuge at 1000g for 5 min at 4 °C and resuspended in a hypotonic buffer (25 mM NaHEPES pH 7.5, 2 mM MgCl2, 1 mM EDTA, and 1× EDTA-free PIERCE protease inhibitor tablet). After resuspension, cells were homogenized with an Ultra Turrax for 30 s at 10,000 rpm followed by a 10 min incubation. Cell debris was pelleted at 800g for 10 min and the supernatant was transferred to ultracentrifuge tubes and centrifuged at 100,000g for 1 h. Membranes were resuspended in a wash buffer (25 mM NaHEPES pH 7.5, 250 mM NaCl, 2 mM MgCl2, 1 mM EDTA, and 1× protease inhibitor tablet). The homogenization and ultracentrifugation were repeated once more and the membranes were resuspended in storage buffer (25 mM NaHEPES pH 7.5, 25 mM NaCl, 2 mM MgCl2, 10% v/v glycerol, and 1× protease inhibitor tablet). The resuspended membranes were homogenized, aliquoted, and flash frozen in liquid nitrogen for storage at -80 °C. Total protein was quantitated using the DC protein assay (BioRad) per the manufacturer's instructions. The concentration of NLuc-CLR was determined by comparing the membrane prep luminescence to a standard curve using purified NLuc enzyme (Promega; […]). […] The Cheng-Prusoff correction[30] was used to calculate the Ki from the IC50.

[3] = molecular target: T1, CGRP receptor (Nluc-CLR:RAMP1); experiment: nanoBRET competition association kinetics (Motulsky-Mahan); assay type: binding; settings: for Kd: mean ± SEM, n=3, read-out: Kd calc (koff/kon)
Description: Membrane preparation was performed as previously described.[29] COS-7 cells in ten […] plastic culture dishes (Corning; 430599) were transiently transfected with 2 μg NLuc-CLR, 2 μg RAMP1, and 46 μg empty pcDNA3.1(+) expression plasmids/dish with 75 μg Polyethylenimine (PEI)/dish. After 2 days, the cells were washed with PBS and harvested with ice-cold PBS + 5 mM EDTA. The cells were pelleted in a centrifuge at 1000g for 5 min at 4 °C and resuspended in a hypotonic buffer (25 mM NaHEPES pH 7.5, 2 mM MgCl2, 1 mM EDTA, and 1× EDTA-free PIERCE protease inhibitor tablet). After resuspension, cells were homogenized with an Ultra Turrax for 30 s at 10,000 rpm followed by a 10 min incubation. Cell debris was pelleted at 800g for 10 min and the supernatant was transferred to ultracentrifuge tubes and centrifuged at 100,000g for 1 h. Membranes were resuspended in a wash buffer (25 mM NaHEPES pH 7.5, 250 mM NaCl, 2 mM MgCl2, 1 mM EDTA, and 1× protease inhibitor tablet). The homogenization and ultracentrifugation were repeated once more and the membranes were resuspended in storage buffer (25 mM NaHEPES pH 7.5, 25 mM NaCl, 2 mM MgCl2, 10% v/v glycerol, and 1× protease inhibitor tablet). The resuspended membranes were homogenized, aliquoted, and flash frozen in liquid nitrogen for storage at −80 °C. Total protein was quantitated using the DC protein assay (BioRad) per the manufacturer’s instructions. The concentration of NLuc-CLR was determined by comparing the membrane prep luminescence to a standard curve using purified NLuc enzyme (Promega; G9711). The total protein concentration was 0.91 mg/mL and the NLuc-CLR was 7.35 nM.
Emission at 460 and 610 nm were measured every 16 s for 45 min with the PolarSTAR Omega plate reader mixing 300 rpm for 1 s before each cycle. The curves were fit using GraphPad Prism to the Motulsky-Mahan competition kinetics equation[31] modified to account for the signal decay component as previously described[32] to determine the kon and koff of the competitor. The Kd (koff/kon), half-life (ln 2/koff), and residence time (1/koff) values were calculated.

[4] = competition against 10 nM CGRP(27-37)*-TAMRA probe, 2 h, read-out: Ki

kon ([1]; association kinetics, 25 °C, kobs vs probe concentration, slope of linear regression, fit of first 10 min (full 1 h 15 min for ssCGRP(8-37)-TAMRA), mean ± SEM, n=3) [M⁻¹ s⁻¹]	koff ([1]; association kinetics, 25 °C, y-intercept of kobs vs probe concentration, mean ± SEM, n=3) [s⁻¹]	half-life ([1]; from association kinetics) [s]	Ki ([2]; G protein coupled state (30 μM sumo-miniGs), 3 nM AM2/IMD(8-47)-TAMRA probe, 8 h, read-out: Ki + mGs) [nM]	Ki ([2]; G protein uncoupled state (50 μM GTPγS), 30 nM AM2/IMD(8-47)-TAMRA probe, 8 h, read-out: Ki + GTPγS) [nM]	Compound	Ki [2, 4] [nM]	koff [3] [s⁻¹]	kon [3] [M⁻¹ s⁻¹]	Residence time (1/koff) ([3]; from competition kinetics)	t1/2 (ln 2/koff) ([3]; from competition kinetics) [min]	Kd ([3]; from competition kinetics) [nM]	residence time ([3]; from competition kinetics) [min]
2.75e+06	0.0635	11			CC(C)[C@H](NC(=O)[C@H](CC(=O)O)NC(=O)[C@@H](NC(=O)[C@@H]1CCCN1C(=O)[C@@H](NC(=O)[C@@H](N)Cc1ccccc1)C(C)C)[C@@H](C)O)C(=O)NCC(=O)N1CCC[C@H]1C(=O)N[C@@H](CCCCNC(=O)c1ccc2c(c1)C(=O)OC21c2ccc(N(C)C)cc2Oc2cc(N(C)C)ccc21)C(=O)N[C@@H](CO)C(=O)N[C@@H](Cc1ccc(O)cc1)C(N)=O [CGRP(27-37)*-TAMRA, αCGRP(27-37) N31D/S34P/K35-TAMRA/A36S/F37Y] (H-FVPTDVGPK(5TAMRA)SY-NH2; N-terminus assumed)							
			0.19 ± 0.01	0.248 ± 0.008	CC(C)C[C@H](NC(=O)CNC(=O)[C@H](C)NC(=O)[C@H](CC(C)C)NC(=O)[C@H](CCCNC(=N)N)NC(=O)[C@H](Cc1c[nH]cn1)NC(=O)[C@@H](NC(=O)[C@@H](NC(=O)[C@@H]1CSSC[C@H](NC(=O)[C@H](C)N)C(=O)N[C@@H](CC(=O)O)C(=O)N[C@@H]([C@@H](C)O)C(=O)N[C@@H](C)C(=O)N[C@@H]([C@@H](C)O)C(=O)N1)C(C)C)[C@@H](C)O)C(=O)N[C@@H](CC(C)C)C(=O)N[C@@H](CO)C(=O)N[C@@H](CCCNC(=N)N)C(=O)N[C@@H](CO)C(=O)NCC(=O)NCC(=O)N[C@H](C(=O)N[C@H](C(=O)N[C@@H](CCCCN)C(=O)N[C@@H](CC(N)=O)C(=O)N[C@@H](CC(N)=O)C(=O)N[C@@H](Cc1ccccc1)C(=O)N[C@H](C(=O)N1CCC[C@H]1C(=O)N[C@H](C(=O)N[C@@H](CC(=O)O)C(=O)N[C@H](C(=O)NCC(=O)N1CCC[C@H]1C(=O)N[C@@H](Cc1c[nH]c2ccccc12)C(=O)N[C@@H](CO)C(=O)N[C@@H](Cc1ccccc1)C(N)=O)C(C)C)[C@@H](C)O)C(C)C)C(C)C)C(C)C [ssCGRP(1-37)] (H-ACDTATCVTHRLAGLLSRSGGVVKNNFVPTDVGPWSF-NH2; disulfide 2-7)							
					FVPTDVGPWSF-NH2 [ssCGRP(27-37)]	0.527 ± 0.039	0.00222	3.22e+06	7.57 ± 0.27 min and ~8 min	5.24 ± 0.18	0.73	
					FVPTNVGSKAF-NH2 [CGRP(27-37), reference compound]	1050	0.203	195000	0.087 ± 0.015 min	0.06 ± 0.01	1040	~0.0833

Reference: article PMC12004451, “Characterization of the Two-Domain Peptide Binding Mechanism of the Human CGRP Receptor for CGRP and the Ultrahigh Affinity ssCGRP Variant” (Biochemistry, 2025)
